Test results published in patent publication US7985731B2, “Sugar chain added GLP-1 peptide” (Otsuka Chemical Holdings Co., Ltd., priority 2007, dated 2011).
Peptide text beside a SMILES is read from it. * marks the point of attachment. X1 = CC(=O)N[C@@H]1[C@@H](O)[C@H](O[C@@H]2O[C@H](CO)[C@@H](O[C@@H]3O[C@H](CO[C@H]4O[C@H](CO)[C@@H](O)[C@H](O)[C@@H]4O[C@@H]4O[C@H](CO)[C@@H](O[C@@H]5O[C@H](CO[C@]6(C(=O)O)C[C@H](O)[C@@H](NC(C)=O)[C@H]([C@H](O)[C@H](O)CO)O6)[C@H](O)[C@H](O)[C@H]5O)[C@H](O)[C@H]4NC(C)=O)[C@@H](O)[C@H](O[C@H]4O[C@H](CO)[C@@H](O)[C@H](O)[C@@H]4O[C@@H]4O[C@H](CO)[C@@H](O[C@@H]5O[C@H](CO[C@]6(C(=O)O)C[C@H](O)[C@@H](NC(C)=O)[C@H]([C@H](O)[C@H](O)CO)O6)[C@H](O)[C@H](O)[C@H]5O)[C@H](O)[C@H]4NC(C)=O)[C@@H]3O)[C@H](O)[C@H]2NC(C)=O)[C@@H](CO)O[C@H]1NC(=O)C*

How the values were obtained:
[1] = molecular target: T1, mouse GLP-1 receptor (Mus musculus, UniProt O35659); assay: Test Example 6: ability to synthesize cAMP in mouse GLP-1 receptor-expressing CHO-K1 cells; assay type: cell-based
T1 construct: expressed in transfected cells
T1 sequence (O35659 22-463): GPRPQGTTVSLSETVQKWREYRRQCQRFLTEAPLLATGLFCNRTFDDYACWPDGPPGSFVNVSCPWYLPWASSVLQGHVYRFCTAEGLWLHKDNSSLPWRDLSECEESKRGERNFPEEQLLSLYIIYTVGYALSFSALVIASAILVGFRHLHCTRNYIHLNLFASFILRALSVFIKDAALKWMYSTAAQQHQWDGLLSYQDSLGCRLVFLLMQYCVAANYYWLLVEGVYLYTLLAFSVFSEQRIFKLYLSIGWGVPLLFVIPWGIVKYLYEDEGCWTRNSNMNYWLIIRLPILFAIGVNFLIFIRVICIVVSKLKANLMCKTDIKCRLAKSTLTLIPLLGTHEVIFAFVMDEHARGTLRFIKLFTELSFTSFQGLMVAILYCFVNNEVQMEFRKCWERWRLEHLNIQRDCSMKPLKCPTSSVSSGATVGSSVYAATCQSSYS
Protocol: 1. Construction of Mouse GLP-1 Receptor-Expressing Vector
A mouse GLP1 receptor sense primer (5′-[…]-3′) (SEQ ID NO: 152) and a mouse GLP-1 receptor antisense primer (5′-[…]-3′) (SEQ ID NO: 153) capable of binding to the 5′ and 3′ ends of mouse GLP-1 receptor cDNA were separately synthesized. PCR was performed using Ex Taq polymerase (TaKaRa) with cDNA (Clone ID: 40046534, Open Biosystems) as a template. Specifically, 50 μL in total of reaction solution consisting of 1 μL of template cDNA (10 ng/μL), 4 μL of 2.5 mM dNTPs, 1 μL of primer solution mixtures (each 50 μM), 5 μL of ×10 Ex Taq polymerase Buffer, 0.25 μL of Ex Taq polymerase and 38.75 μL of sterilized water was used and allowed to react by 94° C. for 1 minute; 94° C. for 45 seconds, 55° C. for 1 minute and 72° C. for 2 minutes (35 cycles); and 72° C. for 10 minutes. The PCR reaction product was electrophoresed on 1% agarose gel, and the cDNA fragment was purified using Wizard SV Gel and PCR Clean-up System (Promega) and treated with restriction enzymes (EcoRI and NheI) to obtain mouse GLP-1 receptor cDNA.
To efficiently obtain cells highly expressing a mouse GLP-1 receptor, a pIRES-gfp vector was used as an expression vector. This vector was prepared by inserting, to a vector pEGFP-N1 (Clontech), an IRES gene-containing DNA fragment obtained by the restriction enzyme treatment (Sal I and BamHI) of pIRESpuro2 (Clontech).
The mouse GLP-1 receptor cDNA fragment was inserted to pIRES-gfp to thereby obtain a mouse GLP-1 receptor-expressing vector mGLP-1R/pIRES-gfp. The DNA sequence of the obtained vector was confirmed using ABI3100-Avant (Applied Biosystems).
2. Preparation of Mouse GLP-1 Receptor-Expressing CHO-K1 Cells
CHO-K1 cells (ATCC catalog No. CCL-61) were transfected with the obtained mGLP-1R/pIRES-gfp using FuGENE (registered trademark) (Roche) according to the instruction manual. The transfected CHO-K1 cells were cultured in RPMI1640 medium (Wako Pure Chemical Industries) containing 10% FCS (Hyclone) and penicillin-streptomycin (SIGMA). Drug selection was conducted by the addition of 1.0 mg/ml G418 (Wako Pure Chemical Industries). The drug resistance cells were sorted with a cell sorter (EPICS ALTRA, Beckman Coulter) using a GFP expression level as an index. After the sorting, the limiting dilution method was conducted to obtain cells highly expressing GFP, namely, cells highly expressing a mouse GLP-1 receptor. The obtained cells were used as mouse GLP-1 receptor-expressing CHO-K1 cells in the experiment shown below.
3. Analysis of Agonist Effect of Oligosaccharide Chain Added GLP-1 Peptide (Ability to Synthesize cAMP)
The mouse GLP-1 receptor-expressing CHO-K1 cells prepared in the preceding paragraph 2 were used to evaluate the agonist effect of the oligosaccharide chain added GLP-1 peptide using the ability to synthesize cAMP as an index.
The mouse GLP-1 receptor-expressing CHO-K1 cells were suspended at a concentration of 5×10^5 cells/ml in RPMI1640 medium containing 10% FCS. The cell suspension was seeded at a concentration of 100 μL per well to a flat-bottomed 96-well plate (Falcon) and cultured at 5% CO2 at 37° C. for 16 hours. The culture supernatant was discarded. The oligosaccharide chain added GLP-1 peptide dissolved in Krebs Ringer bicarbonate Buffer containing 2.5 mM glucose was added at a concentration of 100 μL/well and cultured at 37° C. for 30 minutes. The culture supernatant was immediately discarded. The amount of cAMP synthesized in the mouse GLP-1 receptor-expressing CHO-K1 cells was measured using cAMP ELISA Kit (GE Healthcare or Cayman) and used as an index for the agonist effect of the oligosaccharide chain added GLP-1 peptide on mouse GLP-1 receptors.
GLP-1 increases intracellular cAMP concentrations through the binding to its receptor and promotes insulin secretion. Thus, the activity of the oligosaccharide chain added GLP-1 peptide was evaluated using the ability to synthesize cAMP as an index. […]

[2] = system: C57BL/6JJcl mice; assay: Test Example 7: Oral Glucose Tolerance Test (OGTT); assay type: in vivo; conditions: 9 nmol/kg intraperitoneal 30 minutes before glucose 1 mg/g oral
Protocol: After 30 minutes, a glucose solution was orally administered at a dose of 1 mg/g. Blood was collected from the orbits before the glucose administration and 30 minutes, 60 minutes and 120 minutes after the glucose administration. Blood-sugar levels were measured using ACCU-CHEK Aviva (Roche Diagnostics).
After the oral administration of the glucose solution to the mice fasted overnight, blood was collected over time, and blood-sugar levels were measured.
The correlation between the oligosaccharide chain structure and the activity was studied in mouse OGTT.

Structure (SMILES) | cAMP synthesis activity compared with GLP-1 (in words) [1] | effect of suppressing rise in blood-sugar levels in OGTT [2]
CC[C@H](C)[C@H](NC(=O)[C@H](Cc1ccccc1)NC(=O)[C@H](CCC(=O)O)NC(=O)[C@H](CCCCN)NC(=O)[C@H](C)NC(=O)[C@H](C)NC(=O)[C@H](CCC(N)=O)NC(=O)CNC(=O)[C@H](CCC(=O)O)NC(=O)[C@H](CC(C)C)NC(=O)[C@H](Cc1ccc(O)cc1)NC(=O)[C@H](CO)NC(=O)[C@H](CO)NC(=O)[C@@H](NC(=O)[C@H](CC(=O)O)NC(=O)[C@H](CO)NC(=O)[C@@H](NC(=O)[C@H](Cc1ccccc1)NC(=O)[C@@H](NC(=O)CNC(=O)[C@H](CCC(=O)O)NC(=O)[C@H](C)NC(=O)[C@@H](N)Cc1c[nH]cn1)[C@@H](C)O)[C@@H](C)O)C(C)C)C(=O)N[C@@H](C)C(=O)N[C@@H](Cc1c[nH]c2ccccc12)C(=O)N[C@@H](CC(C)C)C(=O)N[C@H](C(=O)N[C@@H](CSCC(=O)N[C@@H]1O[C@H](CO)[C@@H](O[C@@H]2O[C@H](CO)[C@@H](O[C@@H]3O[C@H](CO[C@H]4O[C@H](CO)[C@@H](O)[C@H](O)[C@@H]4O[C@@H]4O[C@H](CO)[C@@H](O[C@@H]5O[C@H](CO)[C@H](O)[C@H](O)[C@H]5O)[C@H](O)[C@H]4NC(C)=O)[C@@H](O)[C@H](O[C@H]4O[C@H](CO)[C@@H](O)[C@H](O)[C@@H]4O[C@@H]4O[C@H](CO)[C@@H](O[C@@H]5O[C@H](CO)[C@H](O)[C@H](O)[C@H]5O)[C@H](O)[C@H]4NC(C)=O)[C@@H]3O)[C@H](O)[C@H]2NC(C)=O)[C@H](O)[C@H]1NC(C)=O)C(=O)NCC(=O)N[C@@H](CCCNC(=N)N)C(=O)NCC(=O)O)C(C)C [Example 27, 34Cys GLP-1-asialo] | activity equal to or more than that of the GLP-1 | strong effect of suppressing rise in blood-sugar levels
CC[C@H](C)[C@H](NC(=O)[C@H](Cc1ccccc1)NC(=O)[C@H](CCC(=O)O)NC(=O)[C@H](CCCCN)NC(=O)[C@H](C)NC(=O)[C@H](C)NC(=O)[C@H](CCC(N)=O)NC(=O)[C@H](CSCC(=O)N[C@@H]1O[C@H](CO)[C@@H](O[C@@H]2O[C@H](CO)[C@@H](O[C@@H]3O[C@H](CO[C@H]4O[C@H](CO)[C@@H](O)[C@H](O)[C@@H]4O[C@@H]4O[C@H](CO)[C@@H](O[C@@H]5O[C@H](CO[C@]6(C(=O)O)C[C@H](O)[C@@H](NC(C)=O)[C@H]([C@H](O)[C@H](O)CO)O6)[C@H](O)[C@H](O)[C@H]5O)[C@H](O)[C@H]4NC(C)=O)[C@@H](O)[C@H](O[C@H]4O[C@H](CO)[C@@H](O)[C@H](O)[C@@H]4O[C@@H]4O[C@H](CO)[C@@H](O[C@@H]5O[C@H](CO[C@]6(C(=O)O)C[C@H](O)[C@@H](NC(C)=O)[C@H]([C@H](O)[C@H](O)CO)O6)[C@H](O)[C@H](O)[C@H]5O)[C@H](O)[C@H]4NC(C)=O)[C@@H]3O)[C@H](O)[C@H]2NC(C)=O)[C@H](O)[C@H]1NC(C)=O)NC(=O)[C@H](CCC(=O)O)NC(=O)[C@H](CC(C)C)NC(=O)[C@H](Cc1ccc(O)cc1)NC(=O)[C@H](CO)NC(=O)[C@H](CO)NC(=O)[C@@H](NC(=O)[C@H](CC(=O)O)NC(=O)[C@H](CO)NC(=O)[C@@H](NC(=O)[C@H](Cc1ccccc1)NC(=O)[C@@H](NC(=O)CNC(=O)[C@H](CCC(=O)O)NC(=O)[C@H](C)NC(=O)[C@@H](N)Cc1c[nH]cn1)[C@@H](C)O)[C@@H](C)O)C(C)C)C(=O)N[C@@H](C)C(=O)N[C@@H](Cc1c[nH]c2ccccc12)C(=O)N[C@@H](CC(C)C)C(=O)N[C@H](C(=O)N[C@@H](CCCCN)C(=O)NCC(=O)N[C@@H](CCCNC(=N)N)C(=O)NCC(=O)O)C(C)C [Example 2, 22Cys GLP-1-disialo] (H-HAEGTFTSDVSSYLEC(X1)QAAKEFIAWLVKGRG-OH) | activity equal to or more than that of the GLP-1 | strong effect of suppressing rise in blood-sugar levels
CC[C@H](C)[C@H](NC(=O)[C@H](Cc1ccccc1)NC(=O)[C@H](CCC(=O)O)NC(=O)[C@H](CCCCN)NC(=O)[C@H](C)NC(=O)[C@H](C)NC(=O)[C@H](CCC(N)=O)NC(=O)CNC(=O)[C@H](CCC(=O)O)NC(=O)[C@H](CC(C)C)NC(=O)[C@H](Cc1ccc(O)cc1)NC(=O)[C@H](CO)NC(=O)[C@H](CO)NC(=O)[C@@H](NC(=O)[C@H](CC(=O)O)NC(=O)[C@H](CO)NC(=O)[C@@H](NC(=O)[C@H](Cc1ccccc1)NC(=O)[C@@H](NC(=O)CNC(=O)[C@H](CCC(=O)O)NC(=O)[C@H](C)NC(=O)[C@@H](N)Cc1c[nH]cn1)[C@@H](C)O)[C@@H](C)O)C(C)C)C(=O)N[C@@H](C)C(=O)N[C@@H](Cc1c[nH]c2ccccc12)C(=O)N[C@@H](CC(C)C)C(=O)N[C@H](C(=O)N[C@@H](CCCCN)C(=O)NCC(=O)N[C@@H](CCCNC(=N)N)C(=O)NCC(=O)N[C@@H](CSCC(=O)N[C@@H]1O[C@H](CO)[C@@H](O[C@@H]2O[C@H](CO)[C@@H](O[C@@H]3O[C@H](CO[C@H]4O[C@H](CO)[C@@H](O)[C@H](O)[C@@H]4O[C@@H]4O[C@H](CO)[C@@H](O[C@@H]5O[C@H](CO[C@]6(C(=O)O)C[C@H](O)[C@@H](NC(C)=O)[C@H]([C@H](O)[C@H](O)CO)O6)[C@H](O)[C@H](O)[C@H]5O)[C@H](O)[C@H]4NC(C)=O)[C@@H](O)[C@H](O[C@H]4O[C@H](CO)[C@@H](O)[C@H](O)[C@@H]4O[C@@H]4O[C@H](CO)[C@@H](O[C@@H]5O[C@H](CO[C@]6(C(=O)O)C[C@H](O)[C@@H](NC(C)=O)[C@H]([C@H](O)[C@H](O)CO)O6)[C@H](O)[C@H](O)[C@H]5O)[C@H](O)[C@H]4NC(C)=O)[C@@H]3O)[C@H](O)[C@H]2NC(C)=O)[C@H](O)[C@H]1NC(C)=O)C(=O)O)C(C)C [Example 5, 38Cys GLP-1-disialo] | activity equal to or more than that of the GLP-1 | strong effect of suppressing rise in blood-sugar levels
